Test results published in patent publication US9464064B2, “HCV helicase inhibitors and methods of use thereof” (University of Kansas, priority 2011, dated 2016).

What was measured:
[1] = Chemical stability (hydrolytic); format: physicochemical; details: PBS with 50% acetonitrile, pH 7.4; % remaining after 48 hours at room temperature
Description: The stability of compounds in 1×PBS, pH 7.4, and at room temperature, was determined. Stability was also assessed in the presence of 50% ACN. Compounds were diluted and time 0 hour aliquots were collected and transferred to acetonitrile (spiked with an internal standard). The remainder of the volume was incubated for 48 hours, with additional aliquots collected at different time points (6 total). The amount of compound was determined by LC/MS/MS. The parent compound remaining was calculated by the following formula: % parent compound remaining=[(concentration at x hour/concentration at 0 hour)×100]. Results are the mean of each reaction triplicate, normalized to the internal standard, and expressed as a percent compound remaining after 48 hours.

[2] = Parallel Artificial Membrane Permeability Assay (PAMPA); format: in vitro ADME; details: acceptor pH 7.4
Description: Permeability was assessed using the Parallel Artificial Membrane Permeability Assay (PAMPA) in a 96-well format. All liquid dispensed and transfer steps were performed with the FREEDOM EVO automated liquid handler (Tecan US). Measurements were performed in an aqueous buffer solution (PRISMA HT, pION Inc.) at pH 5.0, 6.2, and 7.4, in duplicate. A “sandwich” plate (pION Inc.) composed of a donor bottom plate and an acceptor filter plate was used. The donor wells contained the compounds in 180 μl system solution, and magnetic stir bars. The filter on the bottom of each acceptor well was coated with GIT-0 lipid (pION Inc.) and filled with 200 μl of Acceptor Sink Buffer, pH 7.4 (pION Inc.) containing a surfactant to mimic the function of serum proteins. The permeation time was 30 minutes and moderate stirring (equivalent to 40 μm Aqueous Boundary Layer thickness) was applied using the GUT-BOX (pION, Inc.). After the permeation time, the sandwich was disassembled and the amount of compound present in both the donor and acceptor wells was measured by UV absorbance (250-498 nm) using the Infinite M200 (Tecan US) and compared to spectra obtained from reference standards. Mass balance was used to determine the amount of material embedded in the membrane filter. The effective permeability, Pe, was calculated using the software PAMPA Evolution Plus, version 3.2 (pION Inc). Verapamil HCl (considered highly permeable), Metoprolol (considered moderately permeable), and Ranitidine (considered poorly permeable) were used as reference standards. Permeation time was 30 minutes. Final DMSO concentration was 0.5% and standards and test compounds were assayed at 100 μM.

Plasma stability, human = format: in vitro ADME; details: percent remaining at 3 hours
Description: Stability of compounds in human plasma (BioChemed Services) and mouse plasma (BioChemed Services) were determined. All liquid was dispensed and transfer steps were performed with the FREEDOM EVO automated liquid handler (Tecan US). Plasma was allowed to thaw at room temperature prior to preparing the assay solution of plasma:1×PBS (1:1). The assay solution was warmed up at 37° C. prior of adding the compound. Immediately after compounds were added, time 0 minute aliquots were promptly collected and mixed with cold acetonitrile (spiked with an internal standard). The remainder of the reaction volume was incubated at 37° C. with shaking. Additional aliquots were collected 180 minutes after the start of the reaction and promptly quenched with cold acetonitrile (spiked with an internal standard). Samples were centrifuged at 3000 rpm for 10 minutes. The amount of compound in the supernatant was determined by LC/MS/MS (Applied Biosystems, Sciex API4000 Q-TRAP) and the percent of parent compound remaining after 180 minutes was calculated by the following formula: % parent compound remaining=[(concentration at 180 minutes/concentration at 0 minutes)×100]. Results reported are the mean of each reaction duplicate, normalized to the internal standard, and expressed as a percent of compound remaining after the incubation time. […]

[3] = Plasma protein binding (RED), mouse; format: in vitro ADME
Description: TEFLON Base Plate wells were rinsed with 20% ethanol for 10 minutes. Ethanol was then removed and wells were rinsed with ultrapure water and allowed to dry. RED (rapid equilibrium dialysis) inserts from Thermo Scientific (Pierce) were placed (open end up) into the wells of the base plate. All liquid was dispensed and transfer steps were performed with the FREEDOM EVO automated liquid handler (Tecan US). The sample chambers (red ring) contained 300 μl of a mixture of plasma and compound, and the buffer chambers received 500 μl of dialysis buffer (1×PBS, pH7.4). Duplicate inserts were made for each concentration tested. The base plate was covered with sealing tape and incubated at 37° C. on an orbital shaker at 350 rpm for 4 hours. After the incubation time, equal volumes from both chambers were removed and transferred to a 96 well plate containing either plasma or buffer. […] The amount of compound in the supernatant was determined by LC/MS/MS (Applied Biosystems, Sciex API4000 Q-Trap). The percent of free and bound compounds were calculated with the following formula: % of bound parent compound=[(amount of compound in donor-receiver/amount of compound in donor)×100]. Results reported are the mean of each reaction duplicate, normalized to the internal standard, and expressed as a percent compound bound after the incubation time. […]

Cc1ccc2nc(-c3ccc4nc(-c5ccc(NC(=O)c6cccc(Cl)c6)cc5)sc4c3)sc2c1S(=O)(=O)O [Compound 17, 2′-(4-(3-chlorobenzamido)phenyl)-6-methyl-[2,6′-bibenzo[d]thiazole]-7-sulfonic acid]
Aqueous Stability [1]: 100%
Papp at 30 min, 100 μM ([2]; PAMPA, donor pH 6.2, read-out: PAMPA Pe): 0.22 ×10⁻⁶ cm/s
PAMPA Pe ([2]; donor pH 5.0): 0 (5.0) ×10^−6 cm/s
PAMPA Pe ([2]; donor pH 7.4): 0 (7.4) ×10^−6 cm/s
Plasma Stability Human (Plasma stability, human): 96.6%
fraction unbound at 4 h, 1 μM ([3]; pH 7.4, 1 μM, read-out: Plasma Protein Binding (% Bound) Mouse (converted)): 0.02
fraction unbound at 4 h, 10 μM ([3]; pH 7.4, 10 μM, read-out: Plasma Protein Binding (% Bound) Mouse): 0.01
